What all share (assay type): cell-based
Assay [1] has as its system PC3 cells. In words: Cell migration ability of PC3 cells. To be noted: FIG. 8C. An excerpt:
(§1) FIGS. 8A-8C show SPDEF is subjected to DNA methylation regulation.
(§2) Both culture and socioeconomic status can affect epigenetic processes; and the epigenetic modification effects can extend not only throughout the life course, but also to generations followed. DNA methylation and histone modifications are two common epigenetic mechanisms that control the expression of affected genes. […] Concomitant with the increased levels of SPDEF, 5-aza treatments reduced the cell migration and invasion ability of PC3 cells. Additionally, the inventors have also examined the distribution of CpG islands in the proximal promoter region of SPDEF. […] Expected treatment levels include, for example, azacytidine 2.5 mg/kg and decitabine 2.5 mg/kg.

A further assay has as its system SPDEF mRNA in PC3 cells. Kind of assay: SPDEF (PDEF) mRNA expression by RT-PCR in treated PC3 cells. To be noted: FIG. 8A/8B.
Description: as §1, §2

For assay [2], the system named is PC3 cells. Kind of assay: Invasion ability of PC3 cells.
The subject of the next assay is TMS1 in PC3 cells. In words: TMS1 expression (methylation-repressed positive control gene) in treated PC3 cells. To be noted: known methylation-repressed gene as positive control, FIG. 8A.
Description: as §1

Each structure is given as a SMILES string.

Consider two molecules from patent US20170343551A1, “METHOD OF DIAGNOSING AND TREATING PROSTATE CANCER” (Board of Supervisors of Louisiana State University and …, priority 2016, published 2017).

On to `Nc1ncn([C@H]2C[C@H](O)[C@@H](CO)O2)c(=O)n1` [5-Aza, 5-aza-2′-deoxycytidine], for which, in the assay with PC3 cells [1], the cell migration ability result is “reduced”. The “expression of SPDEF (PDEF) mRNA” value in the assay on SPDEF mRNA in PC3 cells is “induced”. Moreover, the invasion ability entry with PC3 cells [2] is “reduced”. Besides, in the assay with TMS1 in PC3 cells, the “expression of TMS1” value is listed as “induced”.

Take `CCCC(CCC)C(=O)O` [VPA, valproic acid]: the “expression of SPDEF (PDEF) mRNA” value with SPDEF mRNA in PC3 cells was “did not alter”.
